Results from US20160050920A1, “METHODS TO IMPROVE NODAL ROOTS” (Valent BioSciences Corporation, priority 2014, published 2016).

Experiments:
Assay type in all cases: in vivo
Hybrid corn [1] = assay: Example 4: field study, number and dry weight of roots in two corn hybrids; set-up: Dry weight of nodes 1 to 3 / Dry weight of nodes 4 to 7 / Total dry weight: unit not given here
Method: Another field study was conducted in order to determine the effects of GA3 on root development. Two types of hybrid corn seeds were planted during the spring season. The plants were treated with 0 or 2.75g ai/hectare of GA3 as formulated in RyzUp SmartGrass® using a TeeJet° 8002 VS spray tip on a manual sprayer set at 15 gallons per acre. Distilled water was used and non-ionic surfactant (0.25% v/v). The treatments were applied when the corn was at the V4 stage of development. The plants were then destructively harvested 32 days after treatments and their number of roots, dry weight, and dry weight of nodal roots were evaluated.

Hybrid corn [2] = assay: Example 3: field study, root count of hybrid corn; settings: 2.75 g ai/hectare at V4
Method: A field study was conducted in order to determine the effects of GA3 on root development. Hybrid corn seeds were planted and were treated when the corn was at the V4 stage of development sixteen days after planting. The treatments were 0 or 2.75g ai/hectare of GA3 as formulated in RyzUp SmartGrass® using a TeeJet® 8002 VS spray tips with a backpack sprayer set at 15 gallons per acre. Distilled water was used and non-ionic surfactant (0.25% v/v). The plants were then destructively harvested and their root count was evaluated.

Hybrid corn [3] = assay: Example 1: potted hybrid corn, newest nodal roots after GA3 foliar spray
Text: Hybrid corn seed was planted 3.8 centimeters (cm) deep on three separate dates in Miracle-Gro Potting Mix (Miracle-Grois a registered trademark owned by OMS Investments, Inc., Miracle-Gro Potting Mix is widely available at retail home improvement stores) in 2.5 gallon pots. The pots were filled with 0.007 cubic meters of potting mix. The seeds/plants were watered as needed. The second planting was 10 days after the first planting and the third planting was nine days after the second planting. The plants were treated with 0, 8.4 g ai/hectare, or 16.8 g ai/hectare of GA3 as formulated in RyzUp SmartGrass° (available from Valent BioSciences Corp.) using a TeeJet® 8002 VS spray tip on a manual sprayer set at 15 gallons per acre. Distilled water was used and non-ionic surfactant (0.25% v/v). The treatments were applied on the same day which was 28 days after the first planting (corn was at V6 stage), 18 days after the second planting (corn was at V3 or V4 stages), and 9 days after the third planting (corn was at V1 stage). Crop Heat Units are a way of calculating growth and are calculated on a daily basis, using the maximum (Tmax) and minimum (Tmin) daily air temperatures, measured from midnight to midnight, in degrees Celsius. The Crop Heat Unit (CHU) system uses the following equation which allows growers to more accurately predict the growth of crops compared to using calendar days: Tmax+Tmin÷2−Tbase, wherein Tbase is the base temperature for the crop. During this study, there were a few days following the treatments with temperatures exceeding 24 degrees Celsius and the nights dipped below 10 degrees Celsius. The week immediately following treatment, there was one day above 24 degrees Celsius, each night dipped below 10 degrees Celsius. […] The growth rate of corn also declines when temperatures are above 30 degrees Celsius. In this study, there was an average of 10 CHUs per day following treatment and a total of 83CHUs. The corn was harvested at 1, 2, and 3 weeks after treatment. The plants were washed and roots were separated from shoots.

[4] = Hybrid 1, 2.75 g ai/hectare at V4, 32 days after treatment
[5] = Hybrid 2, 2.75 g ai/hectare at V4, 32 days after treatment

C=C1C[C@]23C[C@@]1(O)CC[C@H]2[C@@]12C=C[C@H](O)[C@@](C)(C(=O)O1)[C@H]2[C@@H]3C(=O)O [GA3, gibberellic acid]
Dry weight of nodes 1 to 3 (Hybrid corn [1]; [4]): 2.5
Dry weight of nodes 4 to 7 (Hybrid corn [1]; [4]): 14.4
Total dry weight (Hybrid corn [1]; [4]): 16.9
Total roots (Hybrid corn [1]; [4]): 53.2
Dry weight of nodes 1 to 3 (Hybrid corn [1]; [5]): 1.7
Dry weight of nodes 4 to 7 (Hybrid corn [1]; [5]): 10.1
Total dry weight (Hybrid corn [1]; [5]): 11.8
Total roots (Hybrid corn [1]; [5]): 39
root count, Treated Compared to Untreated % of Control (Hybrid corn [2]; 1 day before treatment (baseline)): 100.2 % of Control
root count, Treated Compared to Untreated % of Control (Hybrid corn [2]; 4 days after treatment): 105.6 % of Control
root count, Treated Compared to Untreated % of Control (Hybrid corn [2]; 7 days after treatment): 105.5 % of Control
root count, Treated Compared to Untreated % of Control (Hybrid corn [2]; 13 days after treatment): 107.8 % of Control
# of newest nodal roots exposed/6 plants (Hybrid corn [3]; 8.4 g ai/ha GA3): 29
# of newest nodal roots exposed/plant (Hybrid corn [3]; 8.4 g ai/ha GA3): 4.8
# of newest nodal roots exposed/plant with newest nodal roots present (Hybrid corn [3]; 8.4 g ai/ha GA3): 5.8
cm of newest nodal roots exposed/plant (Hybrid corn [3]; 8.4 g ai/ha GA3): 4.2 cm
cm of newest nodal roots exposed/plant with newest nodal roots (Hybrid corn [3]; 8.4 g ai/ha GA3): 5.0 cm
% of plants with newest nodal roots exposed (Hybrid corn [3]; 8.4 g ai/ha GA3, foliar spray): 83%
# of newest nodal roots exposed/6 plants (Hybrid corn [3]; 16.8 g ai/ha GA3): 33
# of newest nodal roots exposed/plant (Hybrid corn [3]; 16.8 g ai/ha GA3): 5.5
# of newest nodal roots exposed/plant with newest nodal roots present (Hybrid corn [3]; 16.8 g ai/ha GA3): 5.5
cm of newest nodal roots exposed/plant (Hybrid corn [3]; 16.8 g ai/ha GA3): 5.3 cm
cm of newest nodal roots exposed/plant with newest nodal roots (Hybrid corn [3]; 16.8 g ai/ha GA3): 5.3 cm
% of plants with newest nodal roots exposed (Hybrid corn [3]; 16.8 g ai/ha GA3, foliar spray): 100%
